Laboratory results taken from patent US20140271765A1 (priority 2013, published 2014).
Several values for one entry are separate records, joined by “and”; a condition that tells them apart may be missing. Equal values may be shown once. Read-outs that look alike come from different tables or passages of the source.

Experiments:
[1] = buprenorphine
[2] = dog, in vivo
[3] = human, in vivo
[4] = in vivo
[5] = 2 implants, individual subjects

CO[C@@]12CC[C@@]3(C[C@@H]1[C@](C)(O)C(C)(C)C)[C@H]1Cc4ccc(O)c5c4[C@@]3(CCN1CC1CC1)[C@H]2O5 [buprenorphine]
Model predicted concentration at removal ([1]; 2 implants, Mean): 330.7 pg/mL
Time from implant to reaching 2x last concentration ([1]; 2 implants, Mean): 242.0 h
α-Half Life ([1]; 2 implants, Mean): 12.75 h
β-Half Life ([1]; 2 implants, Mean): 133.1 h
γ-Half life ([1]; 2 implants, Mean): 160.7 weeks
Model predicted concentration at removal ([1]; 2 implants, Median): 340.0 pg/mL
Time from implant to reaching 2x last concentration ([1]; 2 implants, Median): 231.0 h
α-Half Life ([1]; 2 implants, Median): 7.55 h
β-Half Life ([1]; 2 implants, Median): 124.0 h
γ-Half life ([1]; 2 implants, Median): 77.9 weeks
Model predicted concentration at removal [1, 5]: 263 pg/mL and 342 pg/mL (2×) and 252 pg/mL and 447 pg/mL and 338 pg/mL
Time from implant to reaching 2x last concentration [1, 5]: 396 h and 259 h and 313 h and 180 h and 101 h and 203 h
α-Half Life [1, 5]: 7.55 h and 4.17 h and 115 h and 39.7 h and 2.94 h and 9.41 h
β-Half Life [1, 5]: 124 h and 206 h and 3578 h and 174 h and 52.3 h and 109 h
γ-Half life [1, 5]: 29.9 weeks and 457 weeks and 35.7 weeks and 120 weeks
Model predicted concentration at removal ([1]; 4 implants, Mean): 6.11 pg/mL
Time from implant to reaching 2x last concentration ([1]; 4 implants, Mean): 715.7 h
α-Half Life ([1]; 4 implants, Mean): 3230 h
β-Half Life ([1]; 4 implants, Mean): 15.95 h
Model predicted concentration at removal ([1]; 4 implants, Median): 5.76 pg/mL
Time from implant to reaching 2x last concentration ([1]; 4 implants, Median): 706.5 h
α-Half Life ([1]; 4 implants, Median): 3020 h
β-Half Life ([1]; 4 implants, Median): 15.75 h
changes in plasma buprenorphine exposure with external heat [2]: No consistent changes
mean steady state concentration (Css1) [2]: 3.90 ng/mL
mean steady-state concentration (Css3) [2]: 3.86 ng/mL
mean steady-state plasma buprenorphine concentration (Css2) [2]: 4.37 ng/mL
steady state concentration (Css1), range [2]: 3.01 to 4.77 ng/mL
steady-state concentration (Css3), range [2]: 2.73 to 4.84 ng/mL
steady-state plasma buprenorphine concentration (Css2), range [2]: 2.61 to 5.42 ng/mL
duration of plateau of therapeutically-effective plasma level [3]: at least 24 weeks
time until plasma concentration reaches a plateau [3]: about a few days to about two weeks
shortest half-life during the plateau phase ([4]; human): 25 weeks
Cave from Day 21 to removal, higher in the higher dose group as compared with the lower dose group [4]: 93%
Cmax, higher in the higher dose group as compared with the lower dose group [4]: 62%
reduction in buprenorphine concentrations from Day 17 to removal [4]: ≤ 50%
time to reach plateau phase [4]: ≤ 21 days
